{"source": "patent US12071431B2", "about": "“Pyridin-sulfonamide compounds for the treatment of conditions related to interleukin 1 beta” (ALLINKY BIOPHARMA, priority 2018, dated 2024)", "target": "Recombinant Human MAPK8 (Homo sapiens, UniProt P45983)", "sequence (P45983 whole entry)": "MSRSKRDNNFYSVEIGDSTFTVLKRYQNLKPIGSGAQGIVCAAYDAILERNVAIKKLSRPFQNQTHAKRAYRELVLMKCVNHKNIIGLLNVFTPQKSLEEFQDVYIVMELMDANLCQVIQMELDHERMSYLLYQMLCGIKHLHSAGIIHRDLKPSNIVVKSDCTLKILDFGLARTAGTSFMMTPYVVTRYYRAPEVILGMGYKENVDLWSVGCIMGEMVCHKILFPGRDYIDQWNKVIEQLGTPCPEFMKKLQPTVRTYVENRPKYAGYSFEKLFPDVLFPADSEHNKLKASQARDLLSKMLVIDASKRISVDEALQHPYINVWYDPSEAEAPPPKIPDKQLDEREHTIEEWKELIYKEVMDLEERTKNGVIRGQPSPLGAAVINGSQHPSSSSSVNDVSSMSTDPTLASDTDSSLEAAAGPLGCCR", "assay": "In vitro binding of JNK1 (MAPK8), SPRi", "conditions": "4° C.", "method": "Example 13—In Vitro Binding of JNK1 (MAPK8)\nVarious concentrations of Recombinant Human MAPK8 dissolved in water were manually printed onto a bare gold-coated (thickness 47 nm) PlexArray Nanocapture Sensor Chip (Plexera Bioscience, Seattle, WA, US) at 40% humidity. Each concentration was printed in replicate, and each spot contained 0.2 μL of the protein solution. The chip was incubated in 80% humidity at 4° C. overnight, and rinsed with 10×PBST for 10 min, 1×PBST for 10 min, and deionized water twice for 10 min. The chip was then blocked with 5% (w/v) non-fat milk in water overnight, and washed with 10×PBST for 10 min, 1×PBST for 10 min, and deionized water twice for 10 min before being dried under a stream of nitrogen prior to use.\nSurface Plasmon Resonance Imaging (SPRi) measurements were performed with PlexAray HT (Plexera Bioscience, Seattle, WA, US). Collimated light (660 nm) passes through the coupling prism, reflects off the SPR-active gold surface, and is received by the CCD camera. Buffers and samples were injected by a non-pulsatile piston pump into the 30 μL flowcell that was mounted on the coupling prism. Each measurement cycle contained four steps: washing with PBST running buffer at a constant rate of 2 μL/s to obtain a stable baseline, sample injection at 5 μL/s for binding, surface washing with PBST at 2 μL/s for 300 s, and regeneration with 0.5% (v/v) H3PO4 at 2 μL/s for 300 s. All the measurements were performed at 4° C.\nThe signal changes after binding and washing were recorded in AU as the assay value. Selected protein-grafted regions in the SPR images were analyzed, and the average reflectivity variations of the chosen areas were plotted as a function of time. Real-time binding signals were recorded and analyzed by Data Analysis Module (DAM, Plexera Bioscience, Seattle, WA, US). Kinetic analysis was performed using BIAevaluation 4.1 software (Biacore, Inc.)."}
{"smiles": "CCOc1ccc(Oc2cc(S(=O)(=O)N(C)C)cnc2N2CCC(Oc3ccc(Cl)cc3)CC2)cc1", "note": "[Compound 7]", "values": [{"measurement": "kon", "setting": "association rate, read-out: Ka", "value": 22900, "unit": "M⁻¹ s⁻¹"}, {"measurement": "koff", "setting": "dissociation rate", "value": 0.000782, "unit": "s⁻¹"}, {"measurement": "Kd", "setting": "read-out: equilibrium dissociation constant (KD Value)", "value": 34.1, "unit": "nM"}]}
